The values that follow are results of earlier work, collected in patent publication US7148007B2, “Method for evaluating immunotoxicity of test substance” (priority 2001, dated 2006).

Molecules are shown by their SMILES.

The conditions of the series: toxicity level based on that of 2,3,7,8-TCDD being 1; WHO 1998 TEF scheme.

For the compound `Clc1cc2c(c(Cl)c1Cl)Oc1cc(Cl)c(Cl)c(Cl)c1O2` [1,2,3,6,7,8-HxCDD], the WHO-TEF was 0.1. Regarding `Clc1cc2c(c(Cl)c1Cl)Oc1c(cc(Cl)c(Cl)c1Cl)O2` [1,2,3,7,8,9-HxCDD, 1,2,3,7,8,9-Hexachlorodibenzo-p-dioxin], the WHO-TEF was 0.1.

On to `Clc1cc2c(cc1Cl)Oc1c(cc(Cl)c(Cl)c1Cl)O2` [1,2,3,7,8-PeCDD, 1,2,3,7,8-Pentachlorodibnzo-p-dioxin], for which the WHO-TEF is 1. Consider `Clc1cc2c(cc1Cl)Oc1c(Cl)c(Cl)c(Cl)c(Cl)c1O2` [1,2,3,4,7,8-HxCDD, 1,2,3,4,7,8-Hexachlorodibenzo-p-dioxin], for which the WHO-TEF was 0.1. Regarding `Clc1c(Cl)c(Cl)c2c(c1Cl)Oc1c(Cl)c(Cl)c(Cl)c(Cl)c1O2` [OCDD, 1,2,3,4,5,6,7,8,9-Octachlorodibenzo-p-dioxin], the WHO-TEF is 0.0001. Take `Clc1cc2c(cc1Cl)Oc1cc(Cl)c(Cl)cc1O2` [2,3,7,8-TCDD, 2,3,7,8-Tetraorodibenzo-p-dioxin]: the WHO-TEF is 1.
